Experimental data published in ChEMBL document CHEMBL1121635 (J Med Chem, 1980).

How the values were obtained:
[1] = target: T1, Adrenergic receptor alpha-1 (Rattus norvegicus, UniProt P15823+P23944+P43140)
T1 sequence (P15823 whole entry): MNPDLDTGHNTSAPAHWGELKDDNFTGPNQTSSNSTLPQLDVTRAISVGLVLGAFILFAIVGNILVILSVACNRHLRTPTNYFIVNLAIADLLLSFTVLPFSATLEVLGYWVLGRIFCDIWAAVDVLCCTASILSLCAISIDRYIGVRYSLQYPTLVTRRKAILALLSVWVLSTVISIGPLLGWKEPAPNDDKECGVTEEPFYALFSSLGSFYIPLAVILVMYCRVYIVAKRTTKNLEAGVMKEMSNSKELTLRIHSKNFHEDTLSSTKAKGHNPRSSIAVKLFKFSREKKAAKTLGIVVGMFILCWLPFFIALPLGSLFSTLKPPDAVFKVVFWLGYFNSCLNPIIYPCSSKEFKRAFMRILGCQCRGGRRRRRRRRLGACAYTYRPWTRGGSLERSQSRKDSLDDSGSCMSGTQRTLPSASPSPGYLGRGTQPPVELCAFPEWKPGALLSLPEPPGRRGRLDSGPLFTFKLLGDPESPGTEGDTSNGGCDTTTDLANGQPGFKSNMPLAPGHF
T1 sequence (P23944 whole entry): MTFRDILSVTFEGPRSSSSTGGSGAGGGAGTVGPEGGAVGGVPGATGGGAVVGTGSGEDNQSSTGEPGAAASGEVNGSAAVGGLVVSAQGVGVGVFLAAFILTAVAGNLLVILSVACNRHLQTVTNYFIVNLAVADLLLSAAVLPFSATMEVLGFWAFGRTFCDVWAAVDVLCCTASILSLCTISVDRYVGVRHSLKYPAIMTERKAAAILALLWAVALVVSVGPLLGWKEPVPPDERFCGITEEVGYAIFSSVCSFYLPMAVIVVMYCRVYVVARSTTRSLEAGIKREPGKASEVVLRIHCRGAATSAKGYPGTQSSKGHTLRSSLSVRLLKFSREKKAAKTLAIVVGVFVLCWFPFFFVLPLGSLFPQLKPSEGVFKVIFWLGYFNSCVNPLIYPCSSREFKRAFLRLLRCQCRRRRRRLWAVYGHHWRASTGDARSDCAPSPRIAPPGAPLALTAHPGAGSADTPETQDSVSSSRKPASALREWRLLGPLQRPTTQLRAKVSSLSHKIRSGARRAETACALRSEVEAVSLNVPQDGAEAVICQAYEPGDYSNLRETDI
T1 sequence (P43140 whole entry): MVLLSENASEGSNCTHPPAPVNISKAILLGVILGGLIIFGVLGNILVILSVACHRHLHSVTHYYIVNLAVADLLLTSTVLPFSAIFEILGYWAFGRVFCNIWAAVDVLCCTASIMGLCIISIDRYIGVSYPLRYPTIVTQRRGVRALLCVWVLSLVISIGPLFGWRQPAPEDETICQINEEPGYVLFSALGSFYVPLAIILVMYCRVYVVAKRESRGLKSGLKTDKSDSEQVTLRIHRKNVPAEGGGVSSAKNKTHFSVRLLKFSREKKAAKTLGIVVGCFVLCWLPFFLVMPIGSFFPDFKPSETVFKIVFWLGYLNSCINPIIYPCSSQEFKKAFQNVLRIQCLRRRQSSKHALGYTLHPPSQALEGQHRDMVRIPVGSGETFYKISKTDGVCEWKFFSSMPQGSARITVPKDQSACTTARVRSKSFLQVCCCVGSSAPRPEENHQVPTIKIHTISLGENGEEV
Description: Concentration of compound for 50% displacement of [3H]WB-4101 from Alpha-1 adrenergic receptor of rat brain

[2] = target: Muscarinic acetylcholine receptor
Description: Concentration of compound for 50% displacement of [3H]QNB from Muscarinic acetylcholine receptor in rat brain

[3] = organism: Rattus norvegicus
Description: (§1) Concentration of compound to inhibit 50% of [3H]norepinephrine neurotransmitter uptake in rat brain

[4] = organism: Rattus norvegicus; assay: cells; conditions: Brain, 3 h
Description: (§2) Concentration of compound to inhibit 50% of [3H]-5-HT neurotransmitter uptake in rat brain

[5] = organism: Rattus norvegicus; remark: listed apart in the source
Description: as §2

[6] = target: Dopamine receptor; assay: Concentration of compound for 50% displacement of [3H]spiperone from Dopamine receptor in rat brain; assay type: tissue-based
[7] = organism: Rattus norvegicus; assay: cells; conditions: Brain, 3 h; remark: listed apart in the source
Description: as §1

IC50 [1]	IC50 [2]	IC50 [3]	IC50 [4]	IC50 [5]	IC50 [6]	IC50 [7]	SMILES
0.445 µM	2.24 µM	3.54 µM	19.6 µM				CN1CCC2c3cccc4c3N(CC2C1)c1ccccc1CC4 (stereo in doubt)
1.76 µM	0.449 µM	1.25 µM		14.2 µM			CN1CCC2c3cccc4c3N(CC2C1)c1ccccc1CC4 (trans isomer)
	0.269 µM		0.384 µM		0.645 µM	0.169 µM	CN(C)CCCN1c2ccccc2CCc2ccccc21 [IMIPRAMINE]
